Common to all, as to assay: KinomeScan profiling
What all share (assay type): binding

Experiment [1] deals with MKNK2 (Homo sapiens, UniProt Q9HBH9). Conditions: MKNK2, 1 μM; read-out: % control. A digest of the protocol:
(§1)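 Test agents were profiled at a single concentration of 1 μM (DMSO vehicle) on a near-complete set of 468 kinases. Signal is reported relative to vehicle (100%) and a fully displacing control (0%).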

Experiment [2] has as its target MAP4K5 (Homo sapiens, UniProt Q9Y4K4). The settings on record: MAP4K5, 1 μM; read-out: % control. A digest of the protocol:
as §1

Experiment [3] addresses YSK1 (Homo sapiens, UniProt O00506). The settings on record: YSK1, 1 μM; read-out: % control. In a few lines:
as §1

In experiment [4] the target is T1, AKT2 (Homo sapiens, UniProt P31751).
T1 construct: purchased KinomeScan®
Conditions: AKT2, 1 μM; read-out: % control. In a few lines: as §1

Experiment [5] deals with CDC2L1 (Homo sapiens, UniProt P21127). Conditions: CDC2L1, 1 μM; read-out: % control. In a few lines:
as §1

The target in experiment [6] is T2, NEK3 (Homo sapiens, UniProt P51956).
T2 sequence (P51956 1-506): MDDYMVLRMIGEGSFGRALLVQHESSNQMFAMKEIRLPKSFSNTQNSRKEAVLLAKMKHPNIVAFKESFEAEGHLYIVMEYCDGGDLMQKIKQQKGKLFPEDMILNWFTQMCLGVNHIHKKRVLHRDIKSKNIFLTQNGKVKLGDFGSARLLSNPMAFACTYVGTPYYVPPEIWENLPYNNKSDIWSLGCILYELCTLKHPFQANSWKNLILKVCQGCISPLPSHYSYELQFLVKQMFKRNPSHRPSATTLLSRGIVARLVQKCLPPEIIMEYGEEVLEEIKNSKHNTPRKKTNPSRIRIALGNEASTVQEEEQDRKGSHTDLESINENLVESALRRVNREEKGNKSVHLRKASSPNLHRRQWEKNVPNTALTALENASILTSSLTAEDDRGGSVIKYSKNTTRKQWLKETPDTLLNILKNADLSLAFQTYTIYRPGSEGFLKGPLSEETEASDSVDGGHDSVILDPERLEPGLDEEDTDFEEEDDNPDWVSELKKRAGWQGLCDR
The settings on record: NEK3, 1 μM; read-out: % control. In a few lines:
as §1

For experiment [7], the target named is T3, CTK (Homo sapiens, UniProt P42679).
T3 sequence (P42679 1-507): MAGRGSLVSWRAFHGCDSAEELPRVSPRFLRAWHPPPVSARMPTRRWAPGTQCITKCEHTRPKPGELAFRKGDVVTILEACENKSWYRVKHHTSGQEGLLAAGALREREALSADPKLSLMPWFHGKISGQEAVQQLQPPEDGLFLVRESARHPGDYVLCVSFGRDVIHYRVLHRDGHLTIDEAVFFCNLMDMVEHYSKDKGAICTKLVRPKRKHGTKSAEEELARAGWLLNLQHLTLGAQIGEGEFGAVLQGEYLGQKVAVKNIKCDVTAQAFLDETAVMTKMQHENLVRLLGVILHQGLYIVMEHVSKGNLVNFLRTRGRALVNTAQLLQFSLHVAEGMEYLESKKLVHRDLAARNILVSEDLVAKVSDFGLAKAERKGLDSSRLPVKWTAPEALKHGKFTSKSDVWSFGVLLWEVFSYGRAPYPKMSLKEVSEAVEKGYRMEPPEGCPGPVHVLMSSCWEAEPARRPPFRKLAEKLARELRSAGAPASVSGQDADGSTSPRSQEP
The settings on record: read-out: % control. A digest of the protocol:
as §1

The target in experiment [8] is VEGFR2 (Homo sapiens, UniProt P35968). Conditions: VEGFR2, 1 μM; read-out: % control. A digest of the protocol: as §1
Experiment [9] has as its target PCTK1 (Homo sapiens, UniProt Q00536). Conditions: PCTK1, 1 μM; read-out: % control. A digest of the protocol: as §1
Experiment [10] addresses MST4 (Homo sapiens, UniProt Q9P289). The settings on record: MST4, 1 μM; read-out: % control. A digest of the protocol:
as §1

In experiment [11] the target is T4, CSNK1A1L (Homo sapiens, UniProt Q8N752).
T4 sequence (Q8N752 1-337): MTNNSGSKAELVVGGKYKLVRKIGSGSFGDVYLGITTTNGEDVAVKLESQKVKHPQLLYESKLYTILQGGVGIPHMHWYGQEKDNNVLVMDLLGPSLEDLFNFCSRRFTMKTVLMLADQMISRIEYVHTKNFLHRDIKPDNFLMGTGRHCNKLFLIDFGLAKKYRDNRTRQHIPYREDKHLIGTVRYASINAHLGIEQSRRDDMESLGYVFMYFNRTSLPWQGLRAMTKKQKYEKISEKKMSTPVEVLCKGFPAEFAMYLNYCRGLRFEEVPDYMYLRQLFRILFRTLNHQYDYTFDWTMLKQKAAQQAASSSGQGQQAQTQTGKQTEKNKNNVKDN
The settings on record: read-out: % control. In a few lines: as §1

The target of experiment [12] is T5, TYK2(JH1domain-catalytic) (Homo sapiens, UniProt P29597).
T5 construct: tyrosine kinase 2 (TYK2)(JH1domain-catalytic)
T5 sequence (P29597 897-1176 limits assumed): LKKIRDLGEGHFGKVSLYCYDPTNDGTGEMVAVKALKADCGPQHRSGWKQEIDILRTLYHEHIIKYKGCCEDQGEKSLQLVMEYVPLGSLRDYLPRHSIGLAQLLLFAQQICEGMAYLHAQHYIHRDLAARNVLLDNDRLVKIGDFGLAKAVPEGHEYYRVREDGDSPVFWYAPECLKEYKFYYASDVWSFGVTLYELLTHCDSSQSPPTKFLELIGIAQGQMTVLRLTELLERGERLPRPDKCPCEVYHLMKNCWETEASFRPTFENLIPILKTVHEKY
The settings on record: read-out: % control. In a few lines:
as §1

Experiment [13] deals with DDR1 (Homo sapiens, UniProt Q08345). The settings on record: DDR1, 1 μM; read-out: % control. A digest of the protocol:
as §1

Sequence of DDR1 (Q08345 19-913): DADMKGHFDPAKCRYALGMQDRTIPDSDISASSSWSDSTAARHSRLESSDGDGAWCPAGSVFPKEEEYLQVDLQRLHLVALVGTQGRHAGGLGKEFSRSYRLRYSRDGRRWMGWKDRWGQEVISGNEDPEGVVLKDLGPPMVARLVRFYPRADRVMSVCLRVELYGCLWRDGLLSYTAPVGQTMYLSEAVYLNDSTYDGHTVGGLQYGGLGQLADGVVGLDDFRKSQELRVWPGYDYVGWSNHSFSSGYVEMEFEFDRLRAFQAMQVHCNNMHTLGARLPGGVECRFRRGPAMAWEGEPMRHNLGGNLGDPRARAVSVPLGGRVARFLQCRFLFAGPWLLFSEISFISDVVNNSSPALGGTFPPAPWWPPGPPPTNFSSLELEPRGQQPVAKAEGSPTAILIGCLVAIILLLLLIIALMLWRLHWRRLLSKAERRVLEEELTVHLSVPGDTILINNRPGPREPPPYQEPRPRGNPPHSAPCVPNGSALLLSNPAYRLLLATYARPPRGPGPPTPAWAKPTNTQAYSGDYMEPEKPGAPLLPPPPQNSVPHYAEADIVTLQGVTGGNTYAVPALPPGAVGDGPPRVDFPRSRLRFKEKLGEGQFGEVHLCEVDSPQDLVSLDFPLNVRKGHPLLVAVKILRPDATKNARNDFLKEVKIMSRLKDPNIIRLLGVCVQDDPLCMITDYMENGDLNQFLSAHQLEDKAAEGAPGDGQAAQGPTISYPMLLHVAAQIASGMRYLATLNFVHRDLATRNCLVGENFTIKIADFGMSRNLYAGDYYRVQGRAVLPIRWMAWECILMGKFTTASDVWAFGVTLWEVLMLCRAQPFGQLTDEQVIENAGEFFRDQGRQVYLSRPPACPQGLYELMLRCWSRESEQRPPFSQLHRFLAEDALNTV
Sequence of CDC2L1 (P21127 whole entry): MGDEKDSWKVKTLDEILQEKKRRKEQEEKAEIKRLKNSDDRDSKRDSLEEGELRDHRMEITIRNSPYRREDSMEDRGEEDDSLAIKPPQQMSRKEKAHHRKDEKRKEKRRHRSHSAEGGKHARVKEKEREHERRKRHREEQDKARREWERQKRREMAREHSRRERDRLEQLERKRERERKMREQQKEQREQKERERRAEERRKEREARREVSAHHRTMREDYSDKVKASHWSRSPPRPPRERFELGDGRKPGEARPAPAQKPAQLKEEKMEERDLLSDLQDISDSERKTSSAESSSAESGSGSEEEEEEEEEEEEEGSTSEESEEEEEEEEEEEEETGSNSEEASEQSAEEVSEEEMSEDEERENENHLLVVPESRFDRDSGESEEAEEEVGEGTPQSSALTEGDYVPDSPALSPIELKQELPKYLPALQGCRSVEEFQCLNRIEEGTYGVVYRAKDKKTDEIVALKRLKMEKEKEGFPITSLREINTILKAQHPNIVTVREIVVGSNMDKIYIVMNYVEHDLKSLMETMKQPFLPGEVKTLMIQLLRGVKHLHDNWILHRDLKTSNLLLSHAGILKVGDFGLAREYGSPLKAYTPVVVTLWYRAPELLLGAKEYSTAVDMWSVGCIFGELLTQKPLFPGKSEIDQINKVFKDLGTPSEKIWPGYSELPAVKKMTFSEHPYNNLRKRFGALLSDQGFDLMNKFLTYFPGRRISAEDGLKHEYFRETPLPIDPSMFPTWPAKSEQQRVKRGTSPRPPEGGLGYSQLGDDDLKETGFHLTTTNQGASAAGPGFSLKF
Sequence of MKNK2 (Q9HBH9 whole entry): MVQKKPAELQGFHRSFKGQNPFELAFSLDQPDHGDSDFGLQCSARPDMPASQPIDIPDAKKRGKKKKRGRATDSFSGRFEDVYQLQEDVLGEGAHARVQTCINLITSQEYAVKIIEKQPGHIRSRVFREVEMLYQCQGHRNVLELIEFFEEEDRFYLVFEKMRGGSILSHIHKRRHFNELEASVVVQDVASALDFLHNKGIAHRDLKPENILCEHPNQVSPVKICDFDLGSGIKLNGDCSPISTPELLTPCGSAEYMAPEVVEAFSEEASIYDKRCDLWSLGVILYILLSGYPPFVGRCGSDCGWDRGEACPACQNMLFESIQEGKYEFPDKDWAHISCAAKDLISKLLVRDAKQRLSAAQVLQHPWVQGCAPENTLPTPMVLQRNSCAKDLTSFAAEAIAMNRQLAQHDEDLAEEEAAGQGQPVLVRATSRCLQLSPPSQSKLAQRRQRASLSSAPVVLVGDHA
T1 sequence (P31751 whole entry): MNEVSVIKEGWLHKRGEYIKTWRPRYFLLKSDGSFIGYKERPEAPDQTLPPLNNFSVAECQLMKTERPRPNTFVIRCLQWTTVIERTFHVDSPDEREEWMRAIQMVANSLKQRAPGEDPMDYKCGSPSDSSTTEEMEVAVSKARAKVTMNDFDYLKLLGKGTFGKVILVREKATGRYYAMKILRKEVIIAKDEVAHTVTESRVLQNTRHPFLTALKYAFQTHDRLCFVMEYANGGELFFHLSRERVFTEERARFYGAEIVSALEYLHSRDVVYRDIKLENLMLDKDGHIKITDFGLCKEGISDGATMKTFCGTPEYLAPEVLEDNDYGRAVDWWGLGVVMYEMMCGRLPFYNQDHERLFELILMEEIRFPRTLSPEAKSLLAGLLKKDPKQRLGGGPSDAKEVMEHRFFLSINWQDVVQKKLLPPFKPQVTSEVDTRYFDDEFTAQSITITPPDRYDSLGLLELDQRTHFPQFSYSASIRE
Sequence of VEGFR2 (P35968 20-1356): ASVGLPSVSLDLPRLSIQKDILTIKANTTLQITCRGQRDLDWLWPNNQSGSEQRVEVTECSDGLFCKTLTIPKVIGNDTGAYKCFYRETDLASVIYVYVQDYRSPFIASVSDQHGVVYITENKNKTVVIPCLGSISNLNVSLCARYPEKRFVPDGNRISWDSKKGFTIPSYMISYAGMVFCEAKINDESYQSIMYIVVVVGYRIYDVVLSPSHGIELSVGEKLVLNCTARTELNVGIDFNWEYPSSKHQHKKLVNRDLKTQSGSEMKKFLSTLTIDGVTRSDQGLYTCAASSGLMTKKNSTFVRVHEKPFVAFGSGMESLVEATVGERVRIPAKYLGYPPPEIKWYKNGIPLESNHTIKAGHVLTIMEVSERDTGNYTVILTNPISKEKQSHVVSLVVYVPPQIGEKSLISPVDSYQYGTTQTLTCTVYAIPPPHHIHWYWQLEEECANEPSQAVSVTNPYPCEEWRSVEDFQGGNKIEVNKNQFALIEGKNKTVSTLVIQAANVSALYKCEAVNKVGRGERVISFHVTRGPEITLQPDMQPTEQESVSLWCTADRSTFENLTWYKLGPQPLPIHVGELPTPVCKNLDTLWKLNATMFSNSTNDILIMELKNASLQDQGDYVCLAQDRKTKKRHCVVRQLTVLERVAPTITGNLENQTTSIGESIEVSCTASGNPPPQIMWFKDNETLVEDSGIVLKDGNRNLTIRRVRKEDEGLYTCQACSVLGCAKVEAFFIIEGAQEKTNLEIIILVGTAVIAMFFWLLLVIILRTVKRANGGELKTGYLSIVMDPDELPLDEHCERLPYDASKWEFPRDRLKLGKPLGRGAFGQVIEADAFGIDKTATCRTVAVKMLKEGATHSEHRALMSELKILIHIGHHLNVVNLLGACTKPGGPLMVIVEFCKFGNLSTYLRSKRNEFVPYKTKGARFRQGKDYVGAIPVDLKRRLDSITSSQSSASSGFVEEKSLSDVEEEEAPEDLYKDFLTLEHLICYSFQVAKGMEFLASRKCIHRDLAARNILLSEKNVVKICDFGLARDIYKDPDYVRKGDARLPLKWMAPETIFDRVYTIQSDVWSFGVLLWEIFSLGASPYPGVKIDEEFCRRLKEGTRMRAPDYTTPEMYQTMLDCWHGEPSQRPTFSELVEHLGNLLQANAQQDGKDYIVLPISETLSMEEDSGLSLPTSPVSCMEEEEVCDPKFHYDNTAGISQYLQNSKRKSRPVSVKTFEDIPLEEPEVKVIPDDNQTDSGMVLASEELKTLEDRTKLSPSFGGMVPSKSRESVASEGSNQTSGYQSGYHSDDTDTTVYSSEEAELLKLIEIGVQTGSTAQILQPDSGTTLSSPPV
Sequence of YSK1 (O00506 whole entry): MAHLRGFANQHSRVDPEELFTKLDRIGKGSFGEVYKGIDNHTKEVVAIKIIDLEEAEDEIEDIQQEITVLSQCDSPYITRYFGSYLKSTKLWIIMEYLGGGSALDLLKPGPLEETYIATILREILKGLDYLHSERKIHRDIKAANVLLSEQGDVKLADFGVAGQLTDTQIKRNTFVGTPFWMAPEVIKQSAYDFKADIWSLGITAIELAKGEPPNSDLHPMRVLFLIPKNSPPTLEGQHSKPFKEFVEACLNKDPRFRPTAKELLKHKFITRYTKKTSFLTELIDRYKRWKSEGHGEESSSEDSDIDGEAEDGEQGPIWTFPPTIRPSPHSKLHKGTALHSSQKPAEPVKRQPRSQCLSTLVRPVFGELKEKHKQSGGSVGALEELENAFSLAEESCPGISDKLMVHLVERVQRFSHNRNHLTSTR
Sequence of PCTK1 (Q00536 whole entry): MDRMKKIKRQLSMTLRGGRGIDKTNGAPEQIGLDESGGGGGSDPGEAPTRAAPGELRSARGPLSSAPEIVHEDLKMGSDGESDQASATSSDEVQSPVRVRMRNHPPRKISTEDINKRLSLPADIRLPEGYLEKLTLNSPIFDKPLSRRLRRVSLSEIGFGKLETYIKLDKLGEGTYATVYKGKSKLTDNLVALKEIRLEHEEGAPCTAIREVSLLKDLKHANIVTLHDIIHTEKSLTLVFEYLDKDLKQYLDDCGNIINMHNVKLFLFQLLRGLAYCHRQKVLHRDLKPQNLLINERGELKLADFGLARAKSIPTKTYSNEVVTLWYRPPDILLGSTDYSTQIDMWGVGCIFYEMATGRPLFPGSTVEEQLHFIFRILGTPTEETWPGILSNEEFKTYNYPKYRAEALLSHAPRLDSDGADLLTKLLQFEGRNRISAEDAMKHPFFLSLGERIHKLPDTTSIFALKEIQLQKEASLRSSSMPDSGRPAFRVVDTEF

With `CNc1c(-c2ccc(C(=O)N3CCC(N4CCOCC4)CC3)cc2)cnc2[nH]cc(Cl)c12` [Compound 96, (4-(3-chloro-4-(methylamino)-1H-pyrrolo[2,3-b]pyridin-5-yl)phenyl)(4-morpholinopiperidin-1-yl)methanone], the remaining binding at 1 µM in [1] was 22%; in experiment [2], 39%; in experiment [3], 97%; in experiment [4], 100%; in experiment [5], 96%; in experiment [6], 82%. Besides, the remaining binding at 1 µM in [7] came out at 100%; in experiment [8], 4.2%; in [9], 86%; in experiment [10], 99%; in experiment [11], 48%; in experiment [12], 29%. Moreover, the remaining binding at 1 µM in [13] worked out at 100%.

`O=C(c1ccc(-c2cnc3[nH]cc(Cl)c3c2NC2CCCC2)cc1)N1CCC(N2CCOCC2)CC1` [Compound 101, (4-(3-chloro-4-(cyclopentylamino)-1H-pyrrolo[2,3-b]pyridin-5-yl)phenyl)(4-morpholinopiperidin-1-yl)methanone]: the remaining binding at 1 µM in experiment [1] was 94%; in experiment [2], 88%; in [3], 100%; in [4], 84%; in experiment [5], 94%; in experiment [6], 95%. Besides, the remaining binding at 1 µM in [7] is 95%; in [8], 33%; in [9] it was 100%; in experiment [10], 100%; in experiment [11] it was 100%; in experiment [12] it was 100%. Moreover, in [13], the remaining binding at 1 µM came to 61%.

In the case of `CNc1c(-c2cnn([C@H]3CCN(C(C)=O)C[C@@H]3F)c2)cnc2[nH]cc(Cl)c12` [Compound 77, 1-((3S,4S)-4-(4-(3-chloro-4-(methylamino)-1H-pyrrolo[2,3-b]pyridin-5-yl)-1H-pyrazol-1-yl)-3-fluoropiperidin-1-yl)ethan-1-one], the remaining binding at 1 µM stood at 56% in experiment [1]; 77% in experiment [2]; 84% in [3]; 100% in experiment [4]; 99% in experiment [5]; 68% in experiment [6]. Further, the remaining binding at 1 µM in experiment [7] was 97%; in experiment [8], 2.8%; in experiment [9], 85%; in experiment [10] it was 67%; in experiment [11], 79%; in [12] it was 15%. Moreover, the remaining binding at 1 µM in experiment [13] stood at 100%.

Values taken from patent US12275731B2, “Azaindole inhibitors of wild-type and mutant forms of LRRK2” (DANA-FARBER CANCER INSTITUTE, INC., priority 2018, dated 2025).
